Measurements published in US20250115576A1, “THERAPEUTIC COMPOUNDS AND METHODS OF USE THEREOF” (Genentech, Inc., priority 2018, published 2025).
Where a name gives a salt, the structure may show the parent alone.

How the values were obtained:
hNav1.7 [1] = molecular target: T1, hNav1.7 (Homo sapiens (Human), UniProt Q15858); assay: Patch voltage clamp electrophysiology (EP), Syncropatch 384PE, CHO cells stably expressing Nav1.7; format: cell-based; details: holding potential −50 mV, 7.5 min compound incubation, read-out: EP_SP hNav1.7 EVO IC50
From the text: Example 64c. Electrophysiological Assay (EP) (In Vitro Assay)
Patch voltage clamp electrophysiology allows for the direct measurement and quantification of block of voltage-gated sodium channels (NaV's), and allows the determination of the time- and voltage-dependence of block which has been interpreted as differential binding to the resting, open, and inactivated states of the sodium channel (Hille, B., Journal of General Physiology (1977), 69: 497-515).
The following voltage clamp electrophysiology studies are performed on representative compounds using cells heterologously expressing Nav1.7 or Nav1.5 channels. cDNAs for Nav1.7 (NM_002977) and Nav1.5 (AC137587) are stably expressed in Chinese Hamstr Ovary (CHO) cells and CHL (Chinese Hamster Lung) cells respectively. Sodium currents are measured in the whole-cell configuration using Syncropatch 384PE (Nanlon Technologies, Germany). 1NPC®-384 chips with custom medium resistance and single hole mode are used. Internal solution consists of (in mM): […], 10 CsCl, 20 EGTA, and 10 Hepes (pH adjusted to 7.2); and external solution contains (in mM): 60 NMDG, 80 NaCl, 4 KCl, 1 MgCl2, 2 CaCl2, 2 D-Glucose monohydrate, 10 Hepes (pH adjusted to 7.4 with NaOH).
After system flushing, testing compounds are dissolved in external solution containing 0.1% Pluronic F-127. The chip is moved into the measuring head and the instrument primes the chip with external and internal solutions. 10 μl cells are added to the chip from a cell hotel, and a negative pressure of −50 mBar is applied to form a seal. Following treatment with seal enhancer solution and wash-off with external solution, negative pressure of −250 mbar is applied for 1 second to achieve the whole-cell configuration, followed by three washing steps in external solution. 20 μl of compounds is added to 40 μl in each well (1:3 dilution of compounds), and after mixing, 20 μl is removed so the volume is retained at 40 ul. After approximately 13 minutes recordings, 20 μl/well of 2 uM TTX, or 333 uM Tetracaine (for […]) is added to achieve full block.
For voltage protocol, an holding potential of −50 mV is applied during the whole experiment. A depolarizing step is applied to −10 mV for 10 ms, followed by a hyperpolarization step to −150 mV for 20 ms to allow channel recovery from inactivation. A second depolarizing step is applied from −150 mV to −10 mV for 10 ms, where currents are measured to derive blocking effects of compounds. Inhibition is determined based on 7.5 min of compound incubation.
Target sequence in this assay (Q15858 other isoform, or with tags, fused parts or gaps): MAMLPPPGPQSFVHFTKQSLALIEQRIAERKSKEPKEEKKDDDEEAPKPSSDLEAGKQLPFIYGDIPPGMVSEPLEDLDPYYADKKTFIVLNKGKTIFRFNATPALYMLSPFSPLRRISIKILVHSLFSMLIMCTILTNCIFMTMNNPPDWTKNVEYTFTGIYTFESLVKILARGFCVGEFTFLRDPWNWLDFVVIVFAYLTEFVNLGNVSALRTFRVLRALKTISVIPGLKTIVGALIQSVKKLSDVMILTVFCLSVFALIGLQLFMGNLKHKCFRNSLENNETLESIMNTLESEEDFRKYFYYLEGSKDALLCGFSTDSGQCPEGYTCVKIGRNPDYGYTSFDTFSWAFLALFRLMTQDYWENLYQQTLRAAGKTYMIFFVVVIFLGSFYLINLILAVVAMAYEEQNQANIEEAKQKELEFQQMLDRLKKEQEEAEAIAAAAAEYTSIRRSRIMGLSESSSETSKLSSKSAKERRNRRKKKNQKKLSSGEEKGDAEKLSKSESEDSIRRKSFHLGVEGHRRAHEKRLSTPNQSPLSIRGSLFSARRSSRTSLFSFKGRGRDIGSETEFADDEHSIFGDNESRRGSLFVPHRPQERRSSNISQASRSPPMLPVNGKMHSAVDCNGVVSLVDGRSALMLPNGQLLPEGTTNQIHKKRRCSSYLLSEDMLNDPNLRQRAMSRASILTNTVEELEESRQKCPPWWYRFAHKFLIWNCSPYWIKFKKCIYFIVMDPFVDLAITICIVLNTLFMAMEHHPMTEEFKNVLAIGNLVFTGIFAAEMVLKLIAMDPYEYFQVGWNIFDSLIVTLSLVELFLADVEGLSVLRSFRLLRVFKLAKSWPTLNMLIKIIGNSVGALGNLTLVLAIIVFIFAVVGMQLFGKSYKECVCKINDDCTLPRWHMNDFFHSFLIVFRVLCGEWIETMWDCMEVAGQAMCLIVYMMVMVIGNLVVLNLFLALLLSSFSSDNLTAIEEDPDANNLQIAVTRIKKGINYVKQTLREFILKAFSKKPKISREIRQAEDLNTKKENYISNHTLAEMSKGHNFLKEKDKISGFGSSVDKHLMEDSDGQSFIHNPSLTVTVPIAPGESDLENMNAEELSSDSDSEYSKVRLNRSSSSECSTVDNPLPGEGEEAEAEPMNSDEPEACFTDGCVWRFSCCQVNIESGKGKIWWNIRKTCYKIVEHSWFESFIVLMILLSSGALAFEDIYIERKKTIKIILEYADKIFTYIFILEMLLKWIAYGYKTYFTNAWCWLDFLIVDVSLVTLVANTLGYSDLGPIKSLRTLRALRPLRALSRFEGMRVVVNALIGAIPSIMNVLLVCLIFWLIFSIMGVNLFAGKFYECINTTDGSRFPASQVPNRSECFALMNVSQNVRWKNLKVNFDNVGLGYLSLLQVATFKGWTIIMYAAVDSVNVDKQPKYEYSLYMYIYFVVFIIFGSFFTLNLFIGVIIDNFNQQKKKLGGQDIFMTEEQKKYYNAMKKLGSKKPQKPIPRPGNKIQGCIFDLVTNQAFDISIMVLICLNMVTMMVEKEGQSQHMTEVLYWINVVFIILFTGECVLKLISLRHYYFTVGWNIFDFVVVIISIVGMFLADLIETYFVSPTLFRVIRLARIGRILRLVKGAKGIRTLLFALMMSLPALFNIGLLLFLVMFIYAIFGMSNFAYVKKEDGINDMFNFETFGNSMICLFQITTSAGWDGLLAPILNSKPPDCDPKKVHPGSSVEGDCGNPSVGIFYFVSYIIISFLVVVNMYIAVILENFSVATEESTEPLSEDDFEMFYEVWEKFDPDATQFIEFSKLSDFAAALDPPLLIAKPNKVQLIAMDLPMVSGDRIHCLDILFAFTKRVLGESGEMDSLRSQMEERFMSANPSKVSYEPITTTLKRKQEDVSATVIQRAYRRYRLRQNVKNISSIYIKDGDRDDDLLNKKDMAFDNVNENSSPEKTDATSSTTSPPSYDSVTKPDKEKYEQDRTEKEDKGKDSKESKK

hNav1.7 [2] = molecular target: T1, hNav1.7; assay: Tritiated compound binding to membranes from cells expressing hNav1.7 and the β1 subunit (Nav1.7 LBA); details: competitive binding vs [3H]compound, membranes with hNav1.7 and β1 subunit; read-out: Nav1.7 LBA EVO IC50
Method: Example 64a. Tritiated Compound Binding to Membranes Isolated from Cells that Heterologously Express hNav1.7 and the β 1 Subunit
Preparation of membranes containing recombinantly expressed sodium channels: Frozen recombinant cell pellets are thawed on ice and diluted to 4 times the cell pellet weight with ice cold 50 mM Tris HCl, pH 7.4 buffer. The cell suspensions are homogenized on ice using a motorized glass dounce homogeniser. Homogenates are further diluted 8.4 times with ice cold 50 mM Tris HCl, pH 7.4 buffer and then centrifuged at 200×g at 4° C. for 15 minutes. The supernatants are collected and centrifuged at 10000×g at 4° C. for 50 min. The pellets are then re-suspended in 100 mM NaCl, 20 mM Tris HCl, pH 7.4 buffer containing 1% v/v protease inhibitors (Calbiochem) and re-homogenized on ice. The homogenized membranes are then processed through a syringe equipped with a 26 gauge needle. Protein concentrations arer determined by Bradford Assay and the membranes are stored at −80° C.
Radioligand Binding Studies: Saturation experiments. A competitive NaV1.7 inhibitor having a methyl group is tritiated. Three tritiums are incorporated in place of methyl hydrogens to generate [^3H]compound. Binding of this radioligand is performed in 5 mL borosilicate glass test tubes at room temperature. Binding is initiated by adding membranes to increasing concentrations of [^3H]compound in 100 mM NaCl, 20 mM Tris HCl, pH 7.4 buffer containing 0.01% w/v bovine serum albumin (BSA) for 18 h. Non-specific binding is determined in the presence of 1 μM unlabeled compound. After 18 h, the reactants are filtered through GF/C glass fiber filters presoaked in 0.5% w/v polyethylene imine. […] [^3H]compound bound to filters is quantified by liquid scintillation counting.
Competitive binding experiments: Binding reactions are performed in 96-well polypropylene plates at room temperature for 18 h. […] Bound radioactivity is determined by liquid scintillation counting.
Data Analysis: For saturation experiments, non-specific binding is subtracted from total binding to provide specific binding and these values are recalculated in terms of pmol ligand bound per mg protein. Saturation curves are constructed and dissociation constants are calculated using the single site ligand binding model: Beq=(Bmax*X)/(X+Kd), where Beq is the amount of ligand bound at equilibrium, Bmax is the maximum receptor density, Kd is the dissociation constant for the ligand, and X is the free ligand concentration. For competition studies percent inhibition is determined and IC50 values are calculated using a 4 parameter logistic model (% inhibition=(A+((B−A)/(1+((x/C)^D)))) using XLfit, where A and B are the maximal and minimum inhibition respectively, C is the IC50 concentration and D is the (Hill) slope. […]
Target sequence in this assay (Q15858 whole entry, looked up): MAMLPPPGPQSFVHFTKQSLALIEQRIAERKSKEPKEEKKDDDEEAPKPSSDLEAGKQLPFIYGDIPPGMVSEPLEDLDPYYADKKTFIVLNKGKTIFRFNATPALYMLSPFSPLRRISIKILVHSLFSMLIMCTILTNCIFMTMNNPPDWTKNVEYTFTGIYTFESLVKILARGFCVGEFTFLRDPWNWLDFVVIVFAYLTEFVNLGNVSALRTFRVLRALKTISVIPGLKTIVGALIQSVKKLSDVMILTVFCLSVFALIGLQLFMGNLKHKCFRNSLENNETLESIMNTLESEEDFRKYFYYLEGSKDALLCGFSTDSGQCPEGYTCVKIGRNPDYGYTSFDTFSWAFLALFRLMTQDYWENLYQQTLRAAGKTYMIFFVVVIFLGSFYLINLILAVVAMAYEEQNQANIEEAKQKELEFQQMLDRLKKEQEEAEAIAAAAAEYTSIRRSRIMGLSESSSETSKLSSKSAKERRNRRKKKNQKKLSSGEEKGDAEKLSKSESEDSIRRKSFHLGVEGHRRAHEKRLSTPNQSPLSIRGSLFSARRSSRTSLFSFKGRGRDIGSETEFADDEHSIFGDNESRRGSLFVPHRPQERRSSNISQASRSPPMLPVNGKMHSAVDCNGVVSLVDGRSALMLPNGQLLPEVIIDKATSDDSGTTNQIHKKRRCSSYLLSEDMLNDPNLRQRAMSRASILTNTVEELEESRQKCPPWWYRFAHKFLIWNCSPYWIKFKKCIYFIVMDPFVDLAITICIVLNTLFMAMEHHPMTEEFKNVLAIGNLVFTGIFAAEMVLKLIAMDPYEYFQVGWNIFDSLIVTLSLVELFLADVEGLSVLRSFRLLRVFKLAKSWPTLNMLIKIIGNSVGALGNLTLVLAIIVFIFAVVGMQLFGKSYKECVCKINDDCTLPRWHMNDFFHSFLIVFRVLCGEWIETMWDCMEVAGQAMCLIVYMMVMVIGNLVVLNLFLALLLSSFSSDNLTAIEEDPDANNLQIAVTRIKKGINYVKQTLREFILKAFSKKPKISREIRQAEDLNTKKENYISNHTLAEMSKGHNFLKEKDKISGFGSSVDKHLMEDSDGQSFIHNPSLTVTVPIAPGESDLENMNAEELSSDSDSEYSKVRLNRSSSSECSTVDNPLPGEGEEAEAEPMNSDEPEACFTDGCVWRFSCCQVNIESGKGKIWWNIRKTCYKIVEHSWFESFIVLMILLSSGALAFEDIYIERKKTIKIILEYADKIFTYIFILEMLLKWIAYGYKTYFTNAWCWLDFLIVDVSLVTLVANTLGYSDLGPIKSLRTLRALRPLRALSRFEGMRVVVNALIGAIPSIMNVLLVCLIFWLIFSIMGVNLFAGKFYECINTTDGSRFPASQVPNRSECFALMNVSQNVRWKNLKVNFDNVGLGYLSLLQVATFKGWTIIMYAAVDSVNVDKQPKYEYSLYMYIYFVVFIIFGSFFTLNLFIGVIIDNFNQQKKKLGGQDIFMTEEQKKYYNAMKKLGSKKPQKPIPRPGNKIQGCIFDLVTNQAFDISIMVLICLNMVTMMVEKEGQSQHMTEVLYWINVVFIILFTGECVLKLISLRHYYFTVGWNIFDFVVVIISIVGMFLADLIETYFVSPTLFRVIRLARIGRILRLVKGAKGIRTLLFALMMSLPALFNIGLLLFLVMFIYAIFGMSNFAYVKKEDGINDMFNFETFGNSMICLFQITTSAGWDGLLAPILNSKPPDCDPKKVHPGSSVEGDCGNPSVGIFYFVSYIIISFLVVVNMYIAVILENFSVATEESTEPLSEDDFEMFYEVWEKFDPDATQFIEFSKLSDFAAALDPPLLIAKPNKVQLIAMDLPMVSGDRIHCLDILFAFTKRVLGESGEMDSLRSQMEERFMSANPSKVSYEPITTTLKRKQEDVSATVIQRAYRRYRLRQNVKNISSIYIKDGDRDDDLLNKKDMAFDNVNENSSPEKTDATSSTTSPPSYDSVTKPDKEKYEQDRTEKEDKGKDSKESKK
Target sequence in this assay (Q07699 whole entry partner, looked up): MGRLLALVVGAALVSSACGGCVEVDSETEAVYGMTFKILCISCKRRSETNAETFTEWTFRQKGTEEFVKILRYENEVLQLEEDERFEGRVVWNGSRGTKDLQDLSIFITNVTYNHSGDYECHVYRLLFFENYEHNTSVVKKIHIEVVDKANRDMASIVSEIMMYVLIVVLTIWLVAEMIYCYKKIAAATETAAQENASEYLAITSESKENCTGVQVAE

Compound	IC50 (hNav1.7 [1])	IC50 (hNav1.7 [2])
CN(C)[C@H]1C[C@@H](c2cccc(C(F)(F)F)c2)CC[C@@H]1Nc1ccc(S(=O)(=O)Nc2ccncn2)cn1 (racemic) [Example 2, 6-(((1S,2S,4S)-2-(Dimethylamino)-4-(3-(trifluoromethyl)phenyl)cyclohexyl)amino)-N-(pyrimidin-4-yl)pyridine-3-sulfonamide]	0.427 nM	9.17 nM
5-Chloro-6-(((1S,2S,4S)-4-(3-chlorophenyl)-2-(dimethylamino)cyclohexyl)oxy)-N-(pyrimidin-4-yl)pyridine-3-sulfonamide [Example 27]	0.574 nM	7.12 nM
Cc1nc(O[C@H]2CC[C@H](c3cccc(C(F)(F)F)n3)C[C@@H]2N(C)C)ccc1S(=O)(=O)Nc1ccncn1 [Example 51, 6-(((1S,2S,4S)-2-(dimethylamino)-4-(6-(trifluoromethyl)pyridin-2-yl)cyclohexyl)oxy)-2-methyl-N-(pyrimidin-4-yl)pyridine-3-sulfonamide]	4.59 nM	0.985 nM
Cc1nc(O[C@H]2CC[C@H](c3ccc(F)c(C(F)(F)F)c3)C[C@@H]2N(C)C)ccc1S(=O)(=O)Nc1ccncn1 [Example 45, 6-(((1S,2S,4S)-2-(Dimethylamino)-4-(4-fluoro-3-(trifluoromethyl)phenyl)cyclohexyl)oxy)-2-methyl-N-(pyrimidin-4-yl)pyridine-3-sulfonamide formate]	0.473 nM	–
O=S(=O)(Nc1ccncn1)c1ccc(N[C@H]2CC[C@H](c3cccc(C(F)(F)F)c3)C[C@@H]2N2CCCC2)nc1 [Example 16, N-(pyrimidin-4-yl)-6-(((1S,2S,4S)-2-(pyrrolidin-1-yl)-4-(3-(trifluoromethyl)phenyl)cyclohexyl)-amino)pyridine-3-sulfonamide formate]	2.79 nM	–
O=S(=O)(Nc1ccncn1)c1cnc(O[C@H]2CC[C@H](c3cccc(C(F)(F)F)c3)C[C@@H]2N2CCCC2)c(Cl)c1 [Example 18, 5-chloro-N-(pyrimidin-4-yl)-6-(((1S,2S,4S)-2-(pyrrolidin-1-yl)-4-(3-(trifluoromethyl)phenyl)-cyclohexyl)oxy)pyridine-3-sulfonamide]	0.388 nM	–
6-(((1S,2S,4S)-4-(3-(1,1-difluoroethyl)phenyl)-2-(dimethylamino)cyclohexyl)oxy)-2-methyl-N-(pyrimidin-4-yl)pyridine-3-sulfonamide [Example 41]	1.95 nM	1.9 nM
Cc1nc(O[C@H]2CC[C@H](c3cccc(Cl)c3)C[C@@H]2N(C)C)ccc1S(=O)(=O)Nc1ccncn1 [Example 57, 6-(((1S,2S,4S)-4-(3-chloro-phenyl)-2-(dimethylamino)-cyclohexyl)oxy)-2-methyl-N-(pyrimidin-4-yl)pyridine-3-sulfonamide]	0.919 nM	–
CN(C)[C@H]1C[C@@H](c2cccc(C(F)(F)F)c2)CC[C@@H]1Oc1ncc(S(=O)(=O)Nc2ccncn2)cc1Br [Example 20, 5-bromo-6-(((1S,2S,4S)-2-(dimethylamino)-4-(3-(trifluoromethyl)phenyl)cyclohexyl)oxy)-N-(pyrimidin-4-yl)pyridine-3-sulfonamide formate]	0.9 nM	–
Cc1nc(O[C@H]2CC[C@H](c3ccc(Cl)c(C(F)(F)F)n3)C[C@@H]2N(C)C)ccc1S(=O)(=O)Nc1ccncn1 [Example 62, 6-(((1S,2S,4S)-4-(5-chloro-6-(trifluoromethyl)pyridin-2-yl)-2-(dimethylamino)-cyclohexyl)oxy)-2-methyl-N-(pyrimidin-4-yl)pyridine-3-sulfonamide]	1.53 nM	–
CN(C)[C@H]1C[C@@H](c2cccc(C(F)(F)F)c2)CC[C@@H]1Nc1ccc(S(=O)(=O)Nc2ccncn2)nc1 [Example 5, 5-(((1S,2S,4S)-2-(Dimethylamino)-4-(3-(trifluoromethyl)phenyl)cyclohexyl)amino)-N-(pyrimidin-4-yl)pyridine-2-sulfonamide]	8.33 nM	–
Cc1nc(O[C@H]2CC[C@H](c3cc(F)cc(C(F)(F)F)c3)C[C@@H]2N(C)C)ccc1S(=O)(=O)Nc1ccncn1 [Example 42, 6-(((1S,2S,4S)-2-(Dimethylamino)-4-(3-fluoro-5-(trifluoromethyl)phenyl)cyclohexyl)oxy)-2-methyl-N-(pyrimidin-4-yl)pyridine-3-sulfonamide]	0.646 nM	–
CCN(CC)[C@H]1C[C@@H](c2cccc(C(F)(F)F)c2)CC[C@@H]1Oc1ccc(S(=O)(=O)Nc2ccncn2)c(C)n1 [Example 47, 6-(((1S,2S,4S)-2-(Diethylamino)-4-(3-(trifluoromethyl)phenyl)cyclohexyl)oxy)-2-methyl-N-(pyrimidin-4-yl)pyridine-3-sulfonamide]	1.73 nM	–
